Data as given in patent US11673898B2, “Substituted inhibitors of menin-MLL and methods of use” (Kura Oncology, Inc., priority 2016, dated 2023).

Biological target: T1, Menin MLL 4-43 (Homo sapiens, UniProt O00255)
T1 sequence (O00255 1-610): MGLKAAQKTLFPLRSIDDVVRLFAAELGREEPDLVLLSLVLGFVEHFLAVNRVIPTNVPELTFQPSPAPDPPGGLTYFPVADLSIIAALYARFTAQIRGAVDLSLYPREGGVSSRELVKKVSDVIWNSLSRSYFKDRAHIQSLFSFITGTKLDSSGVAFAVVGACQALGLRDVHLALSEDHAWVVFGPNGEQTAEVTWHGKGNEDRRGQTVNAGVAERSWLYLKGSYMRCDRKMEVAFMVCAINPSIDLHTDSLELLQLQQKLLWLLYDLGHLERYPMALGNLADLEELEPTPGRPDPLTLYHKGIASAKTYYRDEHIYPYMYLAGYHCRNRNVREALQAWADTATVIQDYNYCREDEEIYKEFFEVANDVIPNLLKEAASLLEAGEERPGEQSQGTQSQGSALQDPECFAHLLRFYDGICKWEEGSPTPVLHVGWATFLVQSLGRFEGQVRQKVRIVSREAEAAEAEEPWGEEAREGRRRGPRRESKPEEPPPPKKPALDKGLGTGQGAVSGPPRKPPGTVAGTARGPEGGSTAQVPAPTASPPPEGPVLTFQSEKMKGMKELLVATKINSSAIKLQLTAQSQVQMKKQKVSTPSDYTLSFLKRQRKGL
Experiment: Fluorescence polarization (FP) competition assay of the menin-MLL interaction
Type: binding
Conditions: fluorescence polarization assay; read-out: Menin MLL 4-43 IC50

Row | SMILES | IC50 [nM]
1 | Cc1c(CN2CCC(Nc3ncnc4sc(CC(F)(F)F)cc34)CC2)ccc2c1cc(C#N)n2CC(C)N1CCN(S(N)(=O)=O)CC1 (stereo not drawn) [Compound 7] | 50 to 250
2 | Cc1c(CN2CCC(Nc3ncnc4sc(CC(F)(F)F)cc34)CC2)ccc2c1cc(C#N)n2CCc1ccc(NC(=O)CC#N)cc1 [Compound 1003] | 50 to 250
3 | Cc1c(CN2CCC(Nc3ncnc4sc(CC(F)(F)F)cc34)CC2)ccc2c1cc(C#N)n2CC(C)N1CCN(S(C)(=O)=O)C(C)(C)C1 (stereo not drawn) [Compound 25] | 50 to 250
4 | C/C=C(\C#N)C(=O)Nc1ccc(CCn2c(C#N)cc3c(C)c(CN4CCC(Nc5ncnc6sc(CC(F)(F)F)cc56)CC4)ccc32)cc1 [Compound 1013] | 50 to 250
5 | Cc1c(CN2CCC(Nc3ncnc4sc(CC(F)(F)F)cc34)CC2)ccc2c1cc(C#N)n2C[C@H](C)N1CCN(S(=O)(=O)NCCF)CC1 [Compound 129] | < 50
6 | Cc1c(CN2CCC(Nc3ncnc4sc(CC(F)(F)F)cc34)CC2)ccc2c1cc(C#N)n2CCN1CCC2(CCN(S(C)(=O)=O)C2)C1 (stereo not drawn) [Compound 53] | 20 to 1000
7 | Cc1c(CN2CCC(Nc3nc(N)nc4sc(CC(F)(F)F)cc34)CC2)ccc2c1cc(C#N)n2C[C@H](C)N1C[C@@H](C)N(S(C)(=O)=O)[C@H](C)C1 [Compound 179] | 50 to 250
8 | Cc1c(CN2CCC(Nc3ncnc4sc(CC(F)(F)F)cc34)CC2)ccc2c1cc(C#N)n2C[C@@H](C)N1C[C@@H](C)N(S(C)(=O)=O)[C@H](C)C1 [Compound 91] | 50 to 250
9 | Cc1c(CN2CCC(Nc3ncnc4sc(CC(F)(F)F)cc34)CC2)ccc2c1cc(C#N)n2CC(C)N1CC2CC(C1)N2S(C)(=O)=O (stereo not drawn) [Compound 30] | 50 to 250
10 | Cc1c(CN2CCC(Nc3ncnc4sc(CC(F)(F)F)cc34)CC2)ccc2c1cc(C#N)n2CCN1CC2(C1)CN(S(C)(=O)=O)C2 [Compound 57] | 20 to 1000
11 | CCCCNS(=O)(=O)N1CCN([C@@H](C)Cn2c(C#N)cc3c(C)c(CN4CCC(Nc5ncnc6sc(CC(F)(F)F)cc56)CC4)ccc32)CC1 [Compound 142] | 50 to 250
12 | Cc1c(CN2CCC(Nc3ncnc4sc(CC(F)(F)F)cc34)CC2)ccc2c1cc(C#N)n2C[C@H](C)N1CCN(S(C)(=O)=O)[C@@H](C(N)=O)C1 [Compound 164] | 50 to 250
13 | Cc1nc(NC2CCN(Cc3ccc4c(cc(C#N)n4CCN4CCN(S(C)(=O)=O)CC4)c3C)CC2)c2cc(CC(F)(F)F)sc2n1 [Compound 1023] | 50 to 250
14 | Cc1c(CN2CCC(Nc3ncnc4sc(CC(F)(F)F)cc34)CC2)ccc2c1cc(C#N)n2CC(C(C)C)N1CCN(S(C)(=O)=O)CC1 (stereo not drawn) [Compound 24] | 20 to 1000
15 | CNS(=O)(=O)N1CCN(C(C)Cn2c(C#N)cc3c(C)c(CN4CCC(Nc5ncnc6sc(CC(F)(F)F)cc56)CC4)ccc32)CC1 (stereo not drawn) [Compound 8] | < 50
16 | Cc1c(CN2CCC(Nc3ncnc4sc(CC(F)(F)F)cc34)CC2)ccc2c1cc(C#N)n2C[C@H](C)N1CCN(S(=O)(=O)NC2CC2)CC1 [Compound 73] | < 50
17 | C=CC(=O)Nc1ccc(CCn2c(C#N)cc3c(C)c(CN4CCC(Nc5ncnc6sc(CC(F)(F)F)cc56)CC4)ccc32)cc1OCc1cn(CCOCCOCCOCCNC(=O)CCCC[C@H]2SC[C@H]3NC(=O)N[C@H]32)nn1 [Compound 1012] | > 1000
18 | Cc1c(CN2CCC(Nc3ncnc4sc(CC(F)(F)F)cc34)CC2)ccc2c1cc(C#N)n2CC(C)N1CCN(S(C)(=O)=O)[C@H](C)C1 (stereo partly drawn) [Compound 14] | < 50
19 | Cc1c(CN2CCC(Nc3ncnc4sc(CC(F)(F)F)cc34)CC2)ccc2c1cc(C#N)n2CCN1CC(C)N(S(C)(=O)=O)CC1C (stereo not drawn) [Compound 44] | 20 to 1000
20 | Cc1c(CN2CCC(Nc3ncnc4sc(CC(F)(F)F)cc34)CC2)ccc2c1cc(C#N)n2CC(C)N1C[C@@H](C)N(S(C)(=O)=O)[C@@H](C)C1 (stereo partly drawn) [Compound 12] | < 50
21 | Cc1c(CN2CCC(Nc3ncnc4sc(CC(F)(F)F)cc34)CC2)ccc2c1cc(C#N)n2CC(C)N1CCN(C=O)CC1 (stereo not drawn) [Compound 6] | < 50
22 | Cc1c(CN2CCC(Nc3ncnc4sc(CC(F)(F)F)cc34)CC2)ccc2c1cc(C#N)n2C[C@H](C)N1CCN(S(=O)(=O)C2CCC2)CC1 [Compound 127] | 50 to 250
23 | Cc1c(CN2CCC(Nc3ncnc4sc(CC(F)(F)F)cc34)CC2)ccc2c1cc(C#N)n2C[C@@H](C)N1CCN(C=O)CC1 [Compound 67] | 20 to 1000
24 | [2H]C1([2H])N([C@@H](C)Cn2c(C#N)cc3c(C)c(CN4CCC(Nc5ncnc6sc(CC(F)(F)F)cc56)CC4)ccc32)C([2H])([2H])C([2H])([2H])N(S(C)(=O)=O)C1([2H])[2H] [Compound 153] | 50 to 250
25 | Cc1c(CN2CCC(Nc3ncnc4sc(CC(F)(F)F)cc34)CC2)ccc2c1cc(C#N)n2C[C@H](C)N1CCN(S(=O)(=O)CCO)CC1 [Compound 85] | < 50
26 | Cc1c(CN2CCC(Nc3ncnc4sc(CC(F)(F)F)cc34)CC2)ccc2c1cc(C#N)n2C[C@H](C)N1CCN(S(=O)(=O)N(C)C)CC1 [Compound 89] | < 50

The remaining lines, values ahead:

Row | IC50 [nM] | SMILES
27 | < 50 | CNc1nc(NC2CCN(Cc3ccc4c(cc(C#N)n4C[C@H](C)N4CCN(CC(=O)N(C)C)CC4)c3C)CC2)c2cc(CC(F)(F)F)sc2n1 [Compound 191]
28 | < 50 | CNc1nc(NC2CCN(Cc3ccc4c(cc(C#N)n4C[C@H](C)N4CCN(S(=O)(=O)C(C)C)CC4)c3C)CC2)c2cc(CC(F)(F)F)sc2n1 [Compound 251]
29 | 50 to 250 | Cc1nc(NC2CCN(Cc3ccc4c(cc(C#N)n4C[C@H](C)N4CCC(S(C)(=O)=O)CC4)c3C)CC2)c2cc(C(O)C(F)(F)F)sc2n1 (stereo partly drawn) [Compound 280]
30 | < 50 | Cc1c(CN2CCC(Nc3nc(N)nc4sc(CC(F)(F)F)cc34)CC2)ccc2c1cc(C#N)n2C[C@H](C)N1CCN(S(=O)(=O)CF)CC1 [Compound 149]
31 | > 1000 | Cc1c(CN2CCC(Nc3nc(N(C)C)nc4sc(CC(F)(F)F)cc34)CC2)ccc2c1cc(C#N)n2C[C@H](C)N1CCN(S(C)(=O)=O)CC1 [Compound 170]
32 | 50 to 250 | Cc1c(CN2CCC(Nc3ncnc4sc(CC(F)(F)F)cc34)CC2)ccc2c1cc(C#N)n2C[C@H](C)N1CCN(C(=O)C2CC2)CC1 [Compound 117]
33 | < 50 | CNc1nc(NC2CCN(Cc3ccc4c(cc(C#N)n4CC(C)c4ccc(=O)[nH]c4)c3C)CC2)c2cc(CC(F)(F)F)sc2n1 (stereo not drawn) [Compound 229]
34 | 50 to 250 | COC(=O)N1CCN([C@@H](C)Cn2c(C#N)cc3c(C)c(CN4CCC(Nc5ncnc6sc(CC(F)(F)F)cc56)CC4)ccc32)CC1 [Compound 72]
35 | 20 to 1000 | CC(=O)NC1CCN(CCn2c(C#N)cc3c(C)c(CN4CCC(Nc5ncnc6sc(CC(F)(F)F)cc56)CC4)ccc32)CC1 [Compound 1001]
36 | < 50 | CNc1nc(NC2CCN(Cc3ccc4c(cc(C#N)n4CCN4CCN(S(C)(=O)=O)CC4)c3C)CC2)c2cc(CC(F)(F)F)sc2n1 [Compound 1022]
37 | 20 to 1000 | Cc1c(CN2CCC(Nc3ncnc4sc(CC(F)(F)F)cc34)CC2)ccc2c1cc(C#N)n2C[C@H](C)N1CCC(NP(C)(C)=O)CC1 [Compound 157]
38 | 50 to 250 | CCS(=O)(=O)N1CCN(C(C)Cn2c(C#N)cc3c(C)c(CN4CCC(Nc5ncnc6sc(CC(F)(F)F)cc56)CC4)ccc32)CC1 (stereo not drawn) [Compound 4]
39 | < 50 | CNc1nc(NC2CCN(Cc3ccc4c(cc(C#N)n4C[C@H](C)N4CCC(NS(C)(=O)=O)CC4)c3C)CC2)c2cc(CC(F)(F)F)sc2n1 [Compound 249]
40 | < 50 | Cc1c(CN2CCC(Nc3ncnc4sc(CC(F)(F)F)cc34)CC2)ccc2c1cc(C#N)n2C[C@H](C)N1CCNCC1 [Compound 148]
41 | < 50 | CNc1nc(NC2CCN(Cc3ccc4c(cc(C#N)n4C[C@H](C)N4CCNCC4=O)c3C)CC2)c2cc(CC(F)(F)F)sc2n1 [Compound 225]
42 | 50 to 250 | CNC(=O)N1CCN([C@@H](C)Cn2c(C#N)cc3c(C)c(CN4CCC(Nc5ncnc6sc(CC(F)(F)F)cc56)CC4)ccc32)CC1 [Compound 68]
43 | < 50 | CCC(=O)NC1CCN([C@@H](C)Cn2c(C#N)cc3c(C)c(CN4CCC(Nc5nc(NC)nc6sc(CC(F)(F)F)cc56)CC4)ccc32)CC1 [Compound 213]
44 | 50 to 250 | Cc1c(CN2CCC(Nc3nc(N)nc4sc(CC(F)(F)F)cc34)CC2)ccc2c1cc(C#N)n2C[C@H](C)N1CCOCC1 [Compound 188]
45 | < 50 | CNC(=O)CC1CCN([C@@H](C)Cn2c(C#N)cc3c(C)c(CN4CCC(Nc5nc(C)nc6sc(CC(F)(F)F)cc56)CC4)ccc32)CC1 [Compound 220]
46 | 20 to 1000 | CNS(=O)(=O)N1CCN([C@H](C)Cn2c(C#N)cc3c(C)c(CN4CCC(Nc5ncnc6sc(CC(F)(F)F)cc56)CC4)ccc32)CC1 [Compound 66]
47 | 50 to 250 | Cc1c(CN2CCC(Nc3nc(N)nc4sc(CC(F)(F)F)cc34)CC2)ccc2c1cc(C#N)n2C[C@@H](C)N1CCN(S(C)(=O)=O)CC1 [Compound 167]
48 | < 50 | CNc1nc(NC2CCN(Cc3ccc4c(cc(C#N)n4C[C@H](C)N4CCC(CC(N)=O)CC4)c3C)CC2)c2cc(CC(F)(F)F)sc2n1 [Compound 204]
49 | < 50 | CNc1nc(NC2CCN(Cc3ccc4c(cc(C#N)n4C[C@H](C)N4CCOC(C(N)=O)C4)c3C)CC2)c2cc(CC(F)(F)F)sc2n1 (stereo partly drawn) [Compound 216]
50 | 50 to 250 | Cc1c(CN2CCC(Nc3nc(CF)nc4sc(CC(F)(F)F)cc34)CC2)ccc2c1cc(C#N)n2C[C@H](C)N1CCN(S(C)(=O)=O)CC1 [Compound 241]
51 | < 50 | Cc1c(CN2CCC(Nc3ncnc4sc(CC(F)(F)F)cc34)CC2)ccc2c1cc(C#N)n2CC(C)N1CCC(S(C)(=O)=O)CC1 (stereo not drawn) [Compound 90]
